Data set [1] in a line: UV absorption (sunscreening properties) in ethanol. In kind it is physicochemical. The text has this: This compound had the following sunscreening properties:
spectral domain where ε is greater than 10,000: 297 to 377 nm.

Data set [2] can be described thus: photostability protocol for cosmetic UV filters. In kind it is physicochemical. Particulars: protocol of Inter. J. Cosm. Sci., 1996, 18, 167-177. The text has this: Loss of 5% after subjecting to the photostability protocol (according to BERST G., GONZPNBACH H., CHRIST R., MARTIN R., DEFLANDRE A., MASCOTTO R. E., JOLLEY J. D. R., LOWELL W., PELZER R., STIEHM T., Inter. J. Cosm.Sci., 1996, 18, 167-177. Proposed protocol for determination of photostability Part I: cosmetic UV filters).

This note sets out measurements from US6379655B1, “Photoprotective/cosmetic compositions comprising aminoamidine sunscreens” (Societe l'Oreal S.A., priority 1999, dated 2002).

`N/C(=N\N=C\c1ccccc1O)c1cnccn1` [Compound 52, N′-[(E)-2-hydroxyphenylmethylidene]pyrazinecarbohydrazonamide]: in data set [1], the E1% was 1010 and the λmax is 354.2 nm.
The corresponding values for `N/C(=N\N=C\c1ccoc1)c1cnccn1` [Compound 70, N′-[(E)-3-furylmethylidene]-2-pyrazinecarbohydrazonamide] are 832 and 335 nm.
In data set [1], `N/C(=N\N=C\c1cccnc1)c1cnccn1` [Compound 76, N′-[(E)-3-pyridinylmethylidene]-2-pyrazinecarbohydrazonamide] had an E1% of 1016 and a λmax of 341 nm. Further, in data set [2], the “Loss after subjecting to the photostability protocol” value was found to be 5%.
